Structures are written as SMILES. A value given as a limit tells only on which side of the number the result lay.

For this test, the target named is T1, human acetyl-CoA carboxylase 2 (ACC2) (Homo sapiens, UniProt O00763).
T1 construct: The cDNA encoding amino acids 144 to 2458 of human acetyl-CoA carboxylase 2; made in house; host or cells: Sf9 insect cells (baculovirus, pFastBac1)
T1 sequence (O00763 144-2458): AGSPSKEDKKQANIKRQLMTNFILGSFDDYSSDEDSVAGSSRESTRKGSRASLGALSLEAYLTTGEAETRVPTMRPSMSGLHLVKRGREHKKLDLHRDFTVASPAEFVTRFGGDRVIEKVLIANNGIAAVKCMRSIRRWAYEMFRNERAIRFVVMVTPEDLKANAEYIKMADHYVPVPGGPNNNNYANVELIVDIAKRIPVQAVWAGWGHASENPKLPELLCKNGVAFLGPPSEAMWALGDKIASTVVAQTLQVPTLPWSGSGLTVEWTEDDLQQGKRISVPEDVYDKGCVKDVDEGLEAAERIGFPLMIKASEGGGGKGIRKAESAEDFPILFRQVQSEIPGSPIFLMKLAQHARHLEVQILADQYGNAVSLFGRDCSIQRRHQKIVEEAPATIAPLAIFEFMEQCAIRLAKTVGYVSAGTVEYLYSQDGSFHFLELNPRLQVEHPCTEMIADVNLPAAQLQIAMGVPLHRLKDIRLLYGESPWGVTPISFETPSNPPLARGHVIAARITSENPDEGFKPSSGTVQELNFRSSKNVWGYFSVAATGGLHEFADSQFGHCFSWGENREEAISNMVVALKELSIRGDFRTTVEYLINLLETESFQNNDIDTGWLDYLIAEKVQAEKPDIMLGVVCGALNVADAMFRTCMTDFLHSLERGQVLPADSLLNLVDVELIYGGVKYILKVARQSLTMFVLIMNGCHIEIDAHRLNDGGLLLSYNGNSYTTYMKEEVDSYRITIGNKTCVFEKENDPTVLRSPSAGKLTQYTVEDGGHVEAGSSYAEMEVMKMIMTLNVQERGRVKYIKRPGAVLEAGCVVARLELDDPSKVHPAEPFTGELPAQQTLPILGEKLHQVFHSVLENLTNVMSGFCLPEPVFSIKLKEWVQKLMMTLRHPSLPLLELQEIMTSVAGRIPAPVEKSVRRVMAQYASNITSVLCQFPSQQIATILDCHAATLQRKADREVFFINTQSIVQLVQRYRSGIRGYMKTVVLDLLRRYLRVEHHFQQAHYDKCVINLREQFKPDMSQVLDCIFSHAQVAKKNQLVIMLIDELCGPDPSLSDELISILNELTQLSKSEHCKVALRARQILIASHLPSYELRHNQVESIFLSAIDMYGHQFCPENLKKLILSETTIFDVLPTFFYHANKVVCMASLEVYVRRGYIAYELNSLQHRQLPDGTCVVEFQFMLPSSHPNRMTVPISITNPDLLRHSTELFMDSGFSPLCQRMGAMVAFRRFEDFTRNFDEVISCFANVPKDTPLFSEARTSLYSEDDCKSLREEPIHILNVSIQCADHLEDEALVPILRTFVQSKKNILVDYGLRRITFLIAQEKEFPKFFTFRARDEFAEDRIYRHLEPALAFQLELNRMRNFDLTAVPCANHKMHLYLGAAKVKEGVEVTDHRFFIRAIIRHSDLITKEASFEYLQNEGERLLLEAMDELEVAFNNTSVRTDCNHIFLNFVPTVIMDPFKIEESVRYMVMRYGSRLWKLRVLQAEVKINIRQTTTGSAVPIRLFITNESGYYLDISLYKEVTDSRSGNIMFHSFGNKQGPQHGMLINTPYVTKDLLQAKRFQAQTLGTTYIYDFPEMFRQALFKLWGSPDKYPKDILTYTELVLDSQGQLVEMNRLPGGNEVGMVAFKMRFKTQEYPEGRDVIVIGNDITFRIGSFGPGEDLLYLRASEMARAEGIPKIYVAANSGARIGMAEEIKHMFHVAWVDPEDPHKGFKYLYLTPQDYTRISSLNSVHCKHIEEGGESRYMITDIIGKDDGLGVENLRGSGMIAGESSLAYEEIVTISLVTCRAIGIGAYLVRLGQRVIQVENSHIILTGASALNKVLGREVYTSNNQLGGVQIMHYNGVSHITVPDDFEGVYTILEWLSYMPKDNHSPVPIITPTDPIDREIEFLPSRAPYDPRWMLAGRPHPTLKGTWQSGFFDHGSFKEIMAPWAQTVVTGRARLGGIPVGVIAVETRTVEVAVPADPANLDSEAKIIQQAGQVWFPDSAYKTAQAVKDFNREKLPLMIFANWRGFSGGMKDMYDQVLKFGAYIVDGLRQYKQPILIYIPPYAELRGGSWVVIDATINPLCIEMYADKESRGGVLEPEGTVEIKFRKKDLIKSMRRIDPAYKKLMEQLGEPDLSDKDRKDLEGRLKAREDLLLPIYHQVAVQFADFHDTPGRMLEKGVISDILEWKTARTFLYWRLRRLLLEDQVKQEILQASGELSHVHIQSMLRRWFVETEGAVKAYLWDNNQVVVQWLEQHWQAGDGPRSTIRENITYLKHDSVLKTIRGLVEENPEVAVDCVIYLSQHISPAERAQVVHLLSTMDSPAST
As to the kind of experiment: Acetyl-CoA carboxylase enzyme assay (malonyl-CoA formation by LC/MS/MS). The test is classed as biochemical. The following applies: recombinant human ACC2 (aa 144-2458); read-out: IC50 ACC2. An outline of the steps: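 Malonyl-CoA formation was read by LC/MS/MS MRM against a [13C3]-malonyl-CoA internal standard, after acetic acid quench. The enzyme was baculovirus/Sf9-expressed human ACC2 residues 144–2458, given 15 minutes room-temperature compound preincubation in HEPES pH 7.5 buffer with MgCl2, citrate and DTT. Substrate solution held 50 μM acetyl-CoA, 120 μM ATP and 2 mM KHCO3.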
Usually IC50 stands for the concentration needed to halve the response being measured. As to `CC(C)(C)c1nnc(-c2ccc(NS(=O)(=O)c3ccc4nc(-c5ccccc5)[nH]c4c3)cc2)o1` [Example 513, N-(4-(5-tert-butyl-1,3,4-oxadiazol-2-yl)phenyl)-2-phenyl-1H-benzo[d]imidazole-6-sulfonamide], the IC50 is 2880 nM. In the case of `CC(C)OC(=O)c1ccc(NS(=O)(=O)c2ccc3nc(-c4ccc(S(C)(=O)=O)cc4)[nH]c3c2)cc1` [Example 514, isopropyl 4-(2-(4-(methylsulfonyl)phenyl)-1H-benzo[d]imidazole-6-sulfonamido)benzoate], the IC50 is 838 nM.

For `CC(C)OC(=O)c1ccc(NS(=O)(=O)c2ccc3nc(-c4ccncc4)[nH]c3c2)cc1` [Example 515, isopropyl 4-(2-(pyridin-4-yl)-1H-benzo[d]imidazole-6-sulfonamido)benzoate], the IC50 is 2860 nM.

Turning to `COc1ccc(-c2nc3ccc(S(=O)(=O)Nc4ccc(C(=O)OC(C)C)cc4)cc3[nH]2)cc1OC` [Example 516, isopropyl 4-(2-(3,4-dimethoxyphenyl)-1H-benzo[d]imidazole-6-sulfonamido)benzoate], the IC50 came to 1210 nM. Regarding `CC(C)OC(=O)c1ccc(NS(=O)(=O)c2ccc3nc(-c4ccc(C(C)O)cc4)[nH]c3c2)cc1` (stereo not shown) [Example 517, isopropyl 4-(2-(4-(1-hydroxyethyl)phenyl)-1H-benzo[d]imidazole-6-sulfonamido)benzoate], the IC50 was 247 nM. As to `O=S(=O)(Nc1ccc(-c2nnc(-c3ccccc3)o2)cc1)c1ccc2nc(-c3ccccc3)[nH]c2c1` [Example 518, 2-phenyl-N-(4-(5-phenyl-1,3,4-oxadiazol-2-yl)phenyl)-1H-benzo[d]imidazole-6-sulfonamide], the IC50 is 3580 nM. Turning to `O=S(=O)(Nc1ccc(-c2nnc(C3CCCCC3)o2)cc1)c1ccc2nc(-c3ccccc3)[nH]c2c1` [Example 519, N-(4-(5-cyclohexyl-1,3,4-oxadiazol-2-yl)phenyl)-2-phenyl-1H-benzo[d]imidazole-6-sulfonamide], the IC50 was determined as 32000 nM. Regarding `COCc1nnc(-c2ccc(NS(=O)(=O)c3ccc4nc(-c5ccccc5)[nH]c4c3)cc2)o1` [Example 520, N-(4-(5-(methoxymethyl)-1,3,4-oxadiazol-2-yl)phenyl)-2-phenyl-1H-benzo[d]imidazole-6-sulfonamide], the IC50 worked out at 9350 nM.

For the compound `CC(C)OC(=O)c1ccc(NS(=O)(=O)c2ccc3[nH]c(Nc4ccccc4)nc3c2)cc1` [Example 521, isopropyl 4-(2-(phenylamino)-1H-benzo[d]imidazole-5-sulfonamido)benzoate], the IC50 amounted to 239 nM. For the compound `CC(C)OC(=O)c1ccc(NS(=O)(=O)c2ccc3[nH]c(Nc4ccc(F)cc4)nc3c2)cc1` [Example 522, isopropyl 4-(2-(4-fluorophenylamino)-1H-benzo[d]imidazole-5-sulfonamido)benzoate], the IC50 came to 320 nM. With `COc1ccc(Nc2nc3cc(S(=O)(=O)Nc4ccc(C(=O)OC(C)C)cc4)ccc3[nH]2)cc1` [Example 523, isopropyl 4-(2-(4-methoxyphenylamino)-1H-benzo[d]imidazole-5-sulfonamido)benzoate], the IC50 was 463 nM. For `COc1cccc(Nc2nc3cc(S(=O)(=O)Nc4ccc(C(=O)OC(C)C)cc4)ccc3[nH]2)c1` [Example 524, isopropyl 4-(2-(3-methoxyphenylamino)-1H-benzo[d]imidazole-5-sulfonamido)benzoate], the IC50 was determined as 360 nM.

As for `CC(C)OC(=O)c1ccc(NS(=O)(=O)c2ccc3[nH]c(Nc4cccc(C#N)c4)nc3c2)cc1` [Example 525, isopropyl 4-(2-(3-cyanophenylamino)-1H-benzo[d]imidazole-5-sulfonamido)benzoate], the half-inhibitory concentration (IC50) was 166 nM. As for `CC(C)OC(=O)c1ccc(NS(=O)(=O)c2ccc3[nH]c(Nc4ccc5c(c4)OCCO5)nc3c2)cc1` [Example 526, isopropyl 4-(2-(2,3-dihydrobenzo[b][1,4]dioxin-6-ylamino)-1H-benzo[d]imidazole-5-sulfonamido)benzoate], the figure is 178 nM; as for `CC(C)OC(=O)c1ccc(NS(=O)(=O)c2ccc3[nH]c(Nc4ccc5nsnc5c4)nc3c2)cc1` [Example 527, isopropyl 4-(2-(benzo[c][1,2,5]thiadiazol-5-ylamino)-1H-benzo[d]imidazole-5-sulfonamido)benzoate], 169 nM; as for `CC(C)OC(=O)c1ccc(NS(=O)(=O)c2ccc3[nH]c(Nc4ccc(S(N)(=O)=O)cc4)nc3c2)cc1` [Example 528, isopropyl 4-(2-(4-sulfamoylphenylamino)-1H-benzo[d]imidazole-5-sulfonamido)benzoate], 41 nM. As for `CC(C)OC(=O)c1ccc(NS(=O)(=O)c2ccc3[nH]c(Nc4ccc(Cl)cc4)nc3c2)cc1` [Example 529, isopropyl 4-(2-(4-chlorophenylamino)-1H-benzo[d]imidazole-5-sulfonamido)benzoate], the figure is 644 nM; as for `COc1cc(Nc2nc3cc(S(=O)(=O)Nc4ccc(C(=O)OC(C)C)cc4)ccc3[nH]2)cc(OC)c1` [Example 530, isopropyl 4-(2-(3,5-dimethoxyphenylamino)-1H-benzo[d]imidazole-5-sulfonamido)benzoate], 612 nM; as for `COc1ccc(Nc2nc3cc(S(=O)(=O)Nc4ccc(C(=O)OC(C)C)cc4)ccc3[nH]2)cc1OC` [Example 531, isopropyl 4-(2-(3,4-dimethoxyphenylamino)-1H-benzo[d]imidazole-5-sulfonamido)benzoate], 248 nM. In the case of `CC(C)OC(=O)c1ccc(NS(=O)(=O)c2ccc3[nH]c(Nc4ccc(N5CCOCC5)cc4)nc3c2)cc1` [Example 532, isopropyl 4-(2-(4-morpholinophenylamino)-1H-benzo[d]imidazole-5-sulfonamido)benzoate], the IC50 was 109 nM.

On to `CC(C)OC(=O)c1ccc(NS(=O)(=O)c2ccc3[nH]c(Nc4cccc(F)c4F)nc3c2)cc1` [Example 533, isopropyl 4-(2-(2,3-difluorophenylamino)-1H-benzo[d]imidazole-5-sulfonamido)benzoate], for which the IC50 was found to be 641 nM. As for `CCOC(=O)Nc1ccc(Nc2nc3cc(S(=O)(=O)Nc4ccc(C(=O)OC(C)C)cc4)ccc3[nH]2)cc1` [Example 534, isopropyl 4-(2-(4-(ethoxycarbonylamino)phenylamino)-1H-benzo[d]imidazole-5-sulfonamido)benzoate], the figure is 524 nM; as for `CC(C)OC(=O)c1ccc(NS(=O)(=O)c2ccc3[nH]c(Nc4cccc(F)c4)nc3c2)cc1` [Example 535, isopropyl 4-(2-(3-fluorophenylamino)-1H-benzo[d]imidazole-5-sulfonamido)benzoate], 225 nM.

Turning to `Cc1cccc(Nc2nc3cc(S(=O)(=O)Nc4ccc(C(=O)OC(C)C)cc4)ccc3[nH]2)c1` [Example 536, isopropyl 4-(2-(m-tolylamino)-1H-benzo[d]imidazole-5-sulfonamido)benzoate], the IC50 came to 412 nM. In the case of `CCN(CC)c1ccc(Nc2nc3cc(S(=O)(=O)Nc4ccc(C(=O)OC(C)C)cc4)ccc3[nH]2)cc1` [Example 537, isopropyl 4-(2-(4-(diethylamino)phenylamino)-1H-benzo[d]imidazole-5-sulfonamido)benzoate], the IC50 turned out to be 290 nM. Consider `CC(C)OC(=O)c1ccc(NS(=O)(=O)c2ccc3[nH]c(Nc4cccc([N+](=O)[O-])c4)nc3c2)cc1` [Example 538, isopropyl 4-(2-(3-nitrophenylamino)-1H-benzo[d]imidazole-5-sulfonamido)benzoate], for which the IC50 worked out at 77 nM. As to `CC(C)OC(=O)c1ccc(NS(=O)(=O)c2ccc3[nH]c(Nc4ccc(N5CCOCC5)nc4)nc3c2)cc1` [Example 539, isopropyl 4-(2-(6-morpholinopyridin-3-ylamino)-1H-benzo[d]imidazole-5-sulfonamido)benzoate], the IC50 came out at 221 nM. For the compound `Cc1cccc(C)c1Nc1nc2cc(S(=O)(=O)Nc3ccc(C(=O)OC(C)C)cc3)ccc2[nH]1` [Example 540, isopropyl 4-(2-(2,6-dimethylphenylamino)-1H-benzo[d]imidazole-5-sulfonamido)benzoate], the 50% inhibitory concentration (IC50) was above 139000 nM. For `CC(=O)c1cccc(Nc2nc3cc(S(=O)(=O)Nc4ccc(C(=O)OC(C)C)cc4)ccc3[nH]2)c1` [Example 541, isopropyl 4-(2-(3-acetylphenylamino)-1H-benzo[d]imidazole-5-sulfonamido)benzoate] the value was 86 nM. For the compound `CC(C)OC(=O)c1ccc(NS(=O)(=O)c2ccc3[nH]c(Nc4ccc(F)c(Cl)c4)nc3c2)cc1` [Example 542, isopropyl 4-(2-(3-chloro-4-fluorophenylamino)-1H-benzo[d]imidazole-5-sulfonamido)benzoate], the IC50 came to 575 nM.

`COc1cc(Nc2nc3cc(S(=O)(=O)Nc4ccc(C(=O)OC(C)C)cc4)ccc3[nH]2)cc(OC)c1OC` [Example 543, isopropyl 4-(2-(3,4,5-trimethoxyphenylamino)-1H-benzo[d]imidazole-5-sulfonamido)benzoate]: the IC50 was found to be 280 nM.

As to `CC(C)OC(=O)c1ccc(NS(=O)(=O)c2ccc3[nH]c(Nc4ccc(Cl)c(S(N)(=O)=O)c4)nc3c2)cc1` [Example 544, isopropyl 4-(2-(4-chloro-3-sulfamoylphenylamino)-1H-benzo[d]imidazole-5-sulfonamido)benzoate], the IC50 amounted to 35 nM. For `CC(C)OC(=O)c1ccc(NS(=O)(=O)c2ccc3[nH]c(Nc4ccc(-n5cccn5)cc4)nc3c2)cc1` [Example 545, isopropyl 4-(2-(4-(1H-pyrazol-1-yl)phenylamino)-1H-benzo[d]imidazole-5-sulfonamido)benzoate] the value was 623 nM; for `CC(C)OC(=O)c1ccc(NS(=O)(=O)c2ccc3[nH]c(Nc4ccccc4F)nc3c2)cc1` [Example 546, isopropyl 4-(2-(2-fluorophenylamino)-1H-benzo[d]imidazole-5-sulfonamido)benzoate], 845 nM.

The record behind these values is patent US8697739B2, “Bicyclic acetyl-CoA carboxylase inhibitors and uses thereof” (Novartis AG, priority 2010, dated 2014).
